Test results from patent publication US10464920B2, “Vicinal primary diamines associated with metal and/or free radical chelation motifs, and active against carbonyl and oxidative stress, and use thereof” (UNIVERSITE AMIENS PICARDIE JULES VERNE, priority 2015, dated 2019).

Assays:
[1] = Cu2+ chelating properties by UV/Visible light spectrophotometry (murexide); format: physicochemical; settings: 0.02-2 mM compound, CuSO4 0.25 mM solution, Hexamine buffer pH 5, RT 10 min
Description: J. Mol. Sci., 2009, 10, 5485-5497; Molecules, 2012, 17, 13457-13472). […] A Hexamine buffer 0.01 M/KCl 0.01 M (qsp 200 mL) of which the pH is adjusted to 5 using a solution of HCl 1N is first of all prepared. Solutions of CuSO4.5H2O at 0.5 mM (20 mL) and 0.25 mM (100 mL) are then carried out in this buffer, with the first being used to obtain the calibration curve. An aqueous solution of murexide at 1 mM must also be prepared extemporaneously (10 mL) as well as a stock solution of the compounds to be tested at 4.2 mM in Hexamine buffer 0.01 M/KCl 0.01 M or in a buffer and MeOH 75/25 mixture (6.2 mL). Various concentrations of the compounds to be tested are distributed in Hexamine buffer 0.01M/KCl 0.01M (pH=5) (Table 5) or in a buffer and MeOH 75/25 mixture in tubes for hemolysis (Table 6). The solution of CuSO4.5H2O at 0.25 mM (1 mL) is then added and this is allowed to incubate at RT for 10 min. Finally, the aqueous solution of murexide at 1 mM (0.1 mL) is introduced and is again allowed to incubate at RT for 1 min. The absorbances are then measured at 485 nm ([…]) and 520 nm ([…]) by UV/Visible light spectrophotometry (V-650 JASCO spectrometer) (measurements taken in triplicates). […] After introduction of the aqueous solution of murexide at 1 mM (0.1 mL), this is allowed to incubate at RT for 1 min and the absorbances are finally measured at 485 nm ([…]) and 520 nm ([…]) by UV/Visible light spectrophotometry.

[2] = ORACFL test (Oxygen Radical Absorbance Capacity) using fluorescein/AAPH; format: physicochemical; settings: compounds at 10 μM; mean ± SEM of three independent experiments in triplicate
Description: The antioxidant properties of the compounds according to the invention were evaluated using a ORACFL test using fluorescein (J. Agric. Food Chem., 2004 52, 48-54; J. Agric. Food Chem., 2005, 53, 4290-4302). As such, peroxide radicals, generated in the presence of AAPH (2,2′-azobis(2-methylpropionamidine)dihydrochloride) at 37° C., react with this fluorescent sensor in order to give a non-fluorescent product. The protective effect of the test compounds can then be determined by following the decay curve of the fluorescence of the fluorescein over time and be measuring the area under the curve (AUC) of the sample in relation to that of a control corresponding to an absence of antioxidant.
The trolox (6-hydroxy-2,5,7,8-tetramethylchroman-2-carboxylic acid), a water-soluble analogue of vitamin E, is used as a standard for calculating the antioxidant capacity (ORACFL) of the compounds tested at 10 μM, expressed in […] of tested compound. This value is as such obtained using the straight-line calibration equation giving the area under the curve according to the various concentrations of trolox (Bioorg. Med. Chem., 2015, 23, 1135-1148) (FIG. 11).
A solution of fluorescein (FL) (12 nM; 150 μL) is introduced into a black 96-well plate (Dutscher, Brumath, France). The compounds to be tested (1-20 μM; 25 μL) or trolox (1-50 μM; 25 μL) dissolved in D-PBS are added into each well. After equilibration of the plate during an incubation at 37° C. for a minimum of 30 min, the radical reactions are initiated using a solution of AAPH prepared extemporaneously (30 mM; 25 μL). The fluorescence (λEx: 485 nm; λEm: 520 nm) is measured every 90 seconds for 60 cycles using a temperature-controlled Tecan Infinite® 200 PRO microplate reader (measurements taken in triplicates during three independent experiments).

[3] = tested on: low-density lipoproteins (LDLs); assay: Antiradical properties: inhibition of lipid peroxidation in AAPH-induced oxidation of LDLs; format: biochemical
Description: The antiradical properties of the various compounds are determined by inhibition of the lipid peroxidation in the in vitro model of the oxidation of the low-density lipoproteins (LDLs) (Free Radic. Biol. Med., 1992, 13, 341-390). The lipid peroxidation is initiated by the attack by free radicals of a double bond of a polyunsaturated fatty acid present in the LDLs. […] Once initiated, the oxidation of the LDLs is a chain reaction of lipid peroxidation generated by the free radicals. The oxidation in vitro of the LDLs is induced at 37° C. by the adding of the water-soluble compound 2,2′-Azobis(2-methylpropionamidine)dihydrochloride (AAPH), which generates free radicals during the spontaneous thermal breakdown thereof
Briefly, the oxidation, carried out in a 96-well plate, is induced at 37° C. by adding 20 μL of a solution of AAPH at 2 mM in D-PBS at 160 μL of LDL (100 μg/mL) in the presence or absence of 20 μL of the various solutions of the compounds to be tested dissolved in D-PBS (0.1 to 100 μM in final concentrations). The LDLs alone without adding AAPH are used as a negative control. Each oxidation is carried out in double. During the oxidation, the formation of the conjugated dienes is followed by the measurement of the optical density at 234 nm every 10 minutes for 8 h at 37° C. using a temperature-controlled TECAN spectrophotometer. The vitamin E (α-tocopherol) which is a powerful antioxidant recognised in this in vitro model is used as a reference molecule (J. Nutr. Biochem., 2012, 23, 845-51).

[4] = tested on: murine endothelial brain cells (bEnd.3); assay: Cytotoxicity, cellular viability (CCK-8/WST-8) on bEnd.3; format: cell-based; settings: mouse
Description: (§1) The cellular viability is evaluated by a colorimetric method based on the detection of the conversion of a salt of the tetrazolium (WST-8) by the metabolically active cells (CCK-8 kit, Sigma, Lyons, France) (Molecules, 2014, 19(8), 12048-12064; J. Pharmacol. Toxicol. Methods., 2007, 56(1), 58-62). Living cells have mitochondrial dehydrogenases that reduce the WST-8 (2-(2-methoxy-4-nitrophenyl)-3-(4-nitrophenyl)-5-(2,4-disulfophenyl)-2H-tetrazolium), monosodium salt) to formazan of an orange colour, which dissolves directly in the culture medium in the presence of 1-Methoxy PMS (1-methoxy-5-methylphenazinium methyl sulphate). After an incubation for 1 h at 37° C., the absorbance of the formazan is measured at 450 nm. The absorbance is directly proportional to the number of living cells.
(§2) Briefly, the cells are inoculated in 96-well plates at a rate of 5.10^3 cells per well in 100 μL of the suitable medium until subconfluence. The cells are then washed with D-PBS, then treated with various concentrations (10 μM, 100 μM) of the products to be tested in triplicates for 24 and 48 h. A positive control is carried out with 10% of DMSO. The CCK-8 (10 μL) solution is then added to each well for an incubation for 1 h at 37° C. The measurement of the absorbance is taken at 450 nm using a Perkin Elmer 2103 Envision® microplate reader.
(§3) The viability of the cells is expressed as a % of the control (untreated cells) by the mean±standard deviation of triplicates forming a representative experiment or of three independent experiments conducted in triplicate.

[5] = tested on: rat pheochromocytoma cells, treated as neuronal cells (PC12); assay: Cytotoxicity, cellular viability (CCK-8/WST-8) on PC12; format: cell-based; settings: rat
Description: as §1, §2, §3

[6] = tested on: human fibroblasts (MRC-5); assay: Cytotoxicity, cellular viability (CCK-8/WST-8) on MRC-5; format: cell-based
Description: as §1, §2, §3

[7] = Formation of adducts with MGO, kinetic study by HPLC; format: physicochemical; settings: compound 10 mM, MGO 20 mM, 37° C., after 15 min of incubation
Description: The compounds to be tested are incubated at 37° C. in the presence of MGO or of MDA. A kinetic study aiming to report on the formation of adducts with the MGO or MDA is then carried out via HPLC analysis.
The compounds to be tested (30 μmol) are dissolved in PBS (1.5 mL). An aqueous solution (qsp 1.25 mL) of MGO at 40% in water (250 μmol) is then prepared and in parallel, MDA bis-(diOEt)-acetal (250 μmol) is set to react with a solution of HCl 1N (2 eq) in water (qsp 1.25 mL) for 1 h at room temperature. An aqueous solution of NaOH 0.05N is also required to neutralise the reaction medium (5 mL).
The solution of the compound to be tested (625 μL—final concentration in the medium=10 mM) is then set to react with the solution of MGO or of MDA prepared extemporaneously (125 μL—final concentration in the medium=20 mM) in the presence of NaOH 0.05 N (0.5 mL).
The various mixtures are then incubated in the oven at 37° C. for 24 h.
A sampling of each mixture (100 μL) is taken at regular intervals of time (0.25; 0.5; 1; 5 and 24 h) and stored at −20° C. in order to stop the reaction. After dilution in a MeCN/H2O 98:2 mixture at room temperature, the HPLC analysis is carried out on a Shimadzu LCMS-2020 apparatus (UV chromatogram at 190 nm and mass spectrum in positive electrospray ionisation mode (ESI+)) after separation on the Waters Acquity column using a gradient of solvents H2O+HCOOH 0.1%/MeCN+HCOOH 0.1% (98/2 for 2 min, then 55/45 for 2 min and 45/55 for 3 min) with a flow rate of 0.3 mL/min at 40° C. and an injection of volume of 1 (“detection mode: scan, interface voltage: tuning file, DL voltage: 100 V, Q-array DC: 40 V, Q-array RF: 40 V”). A blank is first of all carried out using a solution containing the reaction medium without scavenger. Then, a free scavenger solution at 10 mM is used as a negative control and the carnosine as a reference of the literature. The proportion of adducts formed with the MGO or MDA (generally, tR=4.1 to 6.8 min) is then measured in relation to the quantity of remaining free scavenger (generally, tR=0.8 to 4.6 min) after measurement of the area under the curve of the corresponding peaks on the UV spectrum (measurements taken for a representative sample).

With COc1cc(/C=C/C(=O)NCCCCC(N)CN)ccc1O (stereo not shown) [Compound 29b, (E)-N-(5,6-diaminohexyl)-3-(4-hydroxy-3-methoxyphenyl)acrylamide] as the molecule, how does the “Cu^2+ chelating properties (complexation of the Cu^2+)” value [1] read?
The value was “poor results”.

What about the ORACFL [2] of the same molecule?
The ORACFL was 1.50 ± 0.10 μmol TE/μmol.

What about the “antioxidant / pro-oxidant behaviour” value ([3]; concentrations ranging from 25 to 100) of the same molecule?
The value was “antioxidants”.

And the “antioxidant / pro-oxidant behaviour” value ([3]; lower concentrations, 0.1 to 10 μM)?
The value was “pro-oxidants”.

What about the “viability of the cells as a percentage of the untreated cells” value ([4]; 24 h, 10 μM) of the same molecule?
Its value is 92%.

And the “viability of the cells as a percentage of the untreated cells” value ([4]; 24 h, 100 μM)?
Its value is 86%.

And the “viability of the cells as a percentage of the untreated cells” value ([4]; 48 h, 10 μM)?
The value was 92%.

What about the “viability of the cells as a percentage of the untreated cells” value ([4]; 48 h, 100 μM) of the same molecule?
The value was 90%.

What about the “viability of the cells as a percentage of the untreated cells” value ([5]; 24 h, 10 μM) of the same molecule?
Its value is 108%.

What about the “viability of the cells as a percentage of the untreated cells” value ([5]; 24 h, 100 μM) of the same molecule?
Its value is 112%.

What about the “viability of the cells as a percentage of the untreated cells” value ([5]; 48 h, 10 μM) of the same molecule?
The value was 95%.

And the “viability of the cells as a percentage of the untreated cells” value ([5]; 48 h, 100 μM)?
The value was 97%.

And the “viability of the cells as a percentage of the untreated cells” value ([6]; MRC-5, 10 μM, 24 h of treatment)?
The value was 106%.

What about the “viability of the cells as a percentage of the untreated cells” value ([6]; MRC-5, 10 μM, 48 h of treatment) of the same molecule?
The value was 95%.

And the “viability of the cells as a percentage of the untreated cells” value ([6]; MRC-5, 100 μM, 24 h of treatment)?
The value was 102%.

What about the “viability of the cells as a percentage of the untreated cells” value ([6]; MRC-5, 100 μM, 48 h of treatment) of the same molecule?
The value was 100%.

What does the source list for Cc1c(O)c(=O)ccn1CCC(=O)NCCCCC(N)CN (stereo not shown) [Compound 37i, N-(5,6-diaminohexyl)-3-(3-hydroxy-2-methyl-4-oxopyridin-1(4H)-yl)propanamide]?
disappearance of the free scavenger to the benefit of adducts with the MGO [7]: almost total disappearance of the free scavenger; Cu^2+ chelating properties (complexation of the Cu^2+) [1]: most active; ORACFL [2]: 1.24 ± 0.02 μmol TE/μmol

What does the source list for Cc1c(O)c(=O)ccn1CCCNC(=O)CCC(N)CN (stereo not shown) [Compound 37j, 4,5-diamino-N-(3-(3-hydroxy-2-methyl-4-oxopyridin-1(4H)-yl)propyl)pentanamide]?
disappearance of the free scavenger to the benefit of adducts with the MGO [7]: almost total disappearance of the free scavenger; Cu^2+ chelating properties (complexation of the Cu^2+) [1]: most active; ORACFL [2]: 1.01 ± 0.06 μmol TE/μmol
